Data on 16 molecules can be found in patent US20250163104A1, “MACROCYCLIC IMMUNOMODULATORS” (priority 2021, published 2025).

Where a SMILES comes first, the peptide text is derived from it. Bridges are numbered along the chain shown (N, C = ends). [ ]: non-standard residue; d: D form. The star is where a group is joined. Phe(4-COOH) = N[C@@H](Cc1ccc(C(=O)O)cc1)C(=O)O; Bip = N[C@@H](Cc1ccc(-c2ccccc2)cc1)C(=O)O; aIle = CC[C@@H](C)[C@H](N)C(=O)O; 4Pal = N[C@@H](Cc1ccncc1)C(=O)O; Cha = N[C@@H](CC1CCCCC1)C(=O)O; dCha = N[C@H](CC1CCCCC1)C(=O)O; Carboxymethyl = O=C(O)C*; Orn = NCCC[C@H](N)C(=O)O; Dab = NCC[C@H](N)C(=O)O; Dap = NC[C@H](N)C(=O)O

T1 sequence (Q15116 25-288): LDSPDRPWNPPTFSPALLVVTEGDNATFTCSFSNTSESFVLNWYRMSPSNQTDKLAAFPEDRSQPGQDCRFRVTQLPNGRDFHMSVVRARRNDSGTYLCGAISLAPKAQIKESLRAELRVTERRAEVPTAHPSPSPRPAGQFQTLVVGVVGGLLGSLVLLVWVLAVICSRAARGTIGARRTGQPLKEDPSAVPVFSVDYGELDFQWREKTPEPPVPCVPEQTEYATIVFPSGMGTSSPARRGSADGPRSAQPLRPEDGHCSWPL

The assay has as its target T1, human PD-1 / PD-L1-Ig binding on Jurkat cell line over-expressing human PD-1 (Jurkat-PD-1) (Homo sapiens, UniProt Q15116).
T1 construct: expressed in transfected cells; host or cells: Jurkat
In words: Jurkat-PD-1 Cell Binding High-Content Screening Assay (CBA). To be noted: Jurkat-PD-1 cells, PE-labeled PD-L1-Ig 20 nM final; read-out: Jurkat HPD1_PDL1 IC50. In kind it is cell-based. The essentials: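 Jurkat-hPD-1 cells in DMEM with 10% fetal calf serum receive test compound and are held at 37° C for 2 h. PE-labeled PD-L1-Ig is added at 20 nM final and left for 1 hour. Cells are then fixed and Hoechst-stained, and binding is measured by imaging.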
A word on the IC50: it is the concentration that inhibits the measured activity by half. For the molecule `CC(C)C[C@H]1NC(=O)[C@H](CCCN)NC(=O)[C@H](C(C)C)NC(=O)[C@H](Cc2ccc(-c3ccccc3)cc2)NC(=O)[C@H](C(C)C)NC(=O)[C@H](Cc2c[nH]c3ccccc23)NC(=O)[C@H](CC(=O)O)NC(=O)[C@H](Cc2ccncc2)NC(=O)[C@H](CN)NC(=O)CSC[C@@H](C(=O)N[C@@H](C)C(N)=O)NC(=O)[C@H]([C@@H](C)O)NC(=O)[C@H](C(C)C)NC(=O)[C@H](CC2CCCCC2)NC(=O)[C@H](Cc2cnc[nH]2)NC1=O` [Compound 1611], the IC50 is 9.6 nM. The figure for `CCCC[C@@H]1NC(=O)[C@H](Cc2ccc(-c3ccccc3)cc2)NC(=O)[C@H](C(C)C)NC(=O)[C@H](Cc2cccc(C)c2)NC(=O)[C@H](CC(=O)O)NC(=O)[C@H](Cc2ccc(C(=O)O)cc2)NC(=O)[C@H](Cc2ccncc2)NC(=O)CSC[C@@H](C(=O)N[C@@H](C)C(N)=O)NC(=O)[C@H]([C@@H](C)O)NC(=O)[C@H](C(C)C)NC(=O)[C@H](CC2CCCCC2)NC(=O)[C@H](CCN)NC(=O)[C@@H](CC(C)C)NC(=O)[C@H](CCCN)NC1=O` [Compound 1613] is 20.7 nM; for `Cc1cccc(C[C@@H]2NC(=O)[C@H](CC(=O)O)NC(=O)[C@H](Cc3ccc(C(=O)O)cc3)NC(=O)[C@H](Cc3ccncc3)NC(=O)CSC[C@@H](C(=O)N[C@@H](C)C(N)=O)NC(=O)[C@H]([C@@H](C)O)NC(=O)[C@H](C(C)C)NC(=O)[C@H](CC3CCCCC3)NC(=O)[C@H](CCN)NC(=O)[C@@H](CC(C)C)NC(=O)[C@H](CCCN)NC(=O)[C@H](C3CCCCC3)NC(=O)[C@H](Cc3ccc(-c4ccccc4)cc3)NC(=O)[C@H](C(C)C)NC2=O)c1` [Compound 1614] it is 14.4 nM. On to `CCC[C@@H]1NC(=O)[C@H](Cc2ccc(-c3ccccc3)cc2)NC(=O)[C@H](C(C)C)NC(=O)[C@H](Cc2cccc(C)c2)NC(=O)[C@H](CC(=O)O)NC(=O)[C@H](Cc2ccc(C(=O)O)cc2)NC(=O)[C@H](Cc2ccncc2)NC(=O)CSC[C@@H](C(=O)N[C@@H](C)C(N)=O)NC(=O)[C@H]([C@@H](C)O)NC(=O)[C@H](C(C)C)NC(=O)[C@H](CC2CCCCC2)NC(=O)[C@H](CCN)NC(=O)[C@@H](CC(C)C)NC(=O)[C@H](CCCN)NC1=O` [Compound 1615], for which the IC50 stood at 15.9 nM.

In the case of `Cc1cccc(C[C@@H]2NC(=O)[C@H](CC(=O)O)NC(=O)[C@H](Cc3ccc(C(=O)O)cc3)NC(=O)[C@H](Cc3ccncc3)NC(=O)CSC[C@@H](C(=O)N[C@@H](C)C(N)=O)NC(=O)[C@H]([C@@H](C)O)NC(=O)[C@H](C(C)C)NC(=O)[C@H](CC3CCCCC3)NC(=O)[C@H](CCN)NC(=O)[C@@H](CC(C)C)NC(=O)[C@H](CCCN)NC(=O)[C@H](c3ccccc3)NC(=O)[C@H](Cc3ccc(-c4ccccc4)cc3)NC(=O)[C@H](C(C)C)NC2=O)c1` [Compound 1616], the IC50 amounted to 9.3 nM.

Turning to `Cc1cccc(C[C@@H]2NC(=O)[C@H](CC(=O)O)NC(=O)[C@H](Cc3ccc(C(=O)O)cc3)NC(=O)[C@H](Cc3ccncc3)NC(=O)CSC[C@@H](C(=O)N[C@@H](C)C(N)=O)NC(=O)[C@H]([C@@H](C)O)NC(=O)[C@H](C(C)C)NC(=O)[C@H](CC3CCCCC3)NC(=O)[C@H](CCN)NC(=O)[C@@H](CC(C)C)NC(=O)[C@H](CCCN)NC(=O)[C@H](C3CC3)NC(=O)[C@H](Cc3ccc(-c4ccccc4)cc3)NC(=O)[C@H](C(C)C)NC2=O)c1` [Compound 1617], the IC50 was found to be 8.5 nM.

As to `Cc1cccc(C[C@@H]2NC(=O)[C@H](CC(=O)O)NC(=O)[C@H](Cc3ccc(C(=O)O)cc3)NC(=O)[C@H](Cc3ccncc3)NC(=O)CSC[C@@H](C(=O)N[C@@H](C)C(N)=O)NC(=O)[C@H]([C@@H](C)O)NC(=O)[C@H](C(C)C)NC(=O)[C@H](CC3CCCCC3)NC(=O)[C@H](CCN)NC(=O)[C@@H](CC(C)C)NC(=O)[C@H](CCCN)NC(=O)[C@H](C(C)(C)C)NC(=O)[C@H](Cc3ccc(-c4ccccc4)cc3)NC(=O)[C@H](C(C)C)NC2=O)c1` [Compound 1618], the IC50 came to 22.7 nM. As for `CC[C@@H]1NC(=O)[C@H](Cc2ccc(-c3ccccc3)cc2)NC(=O)[C@H](C(C)C)NC(=O)[C@H](Cc2cccc(C)c2)NC(=O)[C@H](CC(=O)O)NC(=O)[C@H](Cc2ccc(C(=O)O)cc2)NC(=O)[C@H](Cc2ccncc2)NC(=O)CSC[C@@H](C(=O)N[C@@H](C)C(N)=O)NC(=O)[C@H]([C@@H](C)O)NC(=O)[C@H](C(C)C)NC(=O)[C@H](CC2CCCCC2)NC(=O)[C@H](CCN)NC(=O)[C@@H](CC(C)C)NC(=O)[C@H](CCCN)NC1=O` [Compound 1619], the figure is 14.6 nM; as for `CC[C@@H](C)[C@@H]1NC(=O)[C@H](Cc2ccc(-c3ccccc3)cc2)NC(=O)[C@H](C(C)C)NC(=O)[C@H](Cc2cccc(C)c2)NC(=O)[C@H](CC(=O)O)NC(=O)[C@H](Cc2ccc(C(=O)O)cc2)NC(=O)[C@H](Cc2ccncc2)NC(=O)CSC[C@@H](C(=O)N[C@@H](C)C(N)=O)NC(=O)[C@H]([C@@H](C)O)NC(=O)[C@H](C(C)C)NC(=O)[C@H](CC2CCCCC2)NC(=O)[C@H](CCN)NC(=O)[C@@H](CC(C)C)NC(=O)[C@H](CCCN)NC1=O` [Compound 1620], 5 nM. The figure for `Cc1cccc(C[C@@H]2NC(=O)[C@H](CC(=O)O)NC(=O)[C@H](Cc3ccc(C(=O)O)cc3)NC(=O)[C@H](Cc3ccncc3)NC(=O)CSC[C@@H](C(=O)N[C@@H](C)C(N)=O)NC(=O)[C@H]([C@@H](C)O)NC(=O)[C@H](C(C)C)NC(=O)[C@H](CC3CCCCC3)NC(=O)[C@H](CCN)NC(=O)[C@@H](CC(C)C)NC(=O)[C@H](CCCN)NC(=O)[C@H](CC3CCCCC3)NC(=O)[C@H](Cc3ccc(-c4ccccc4)cc3)NC(=O)[C@H](C(C)C)NC2=O)c1` [Compound 1621] is 36.7 nM; for `CCCC[C@@H]1NC(=O)[C@H](Cc2ccc(-c3ccccc3)cc2)NC(=O)[C@H](C(C)C)NC(=O)[C@H](Cc2c[nH]c3ccccc23)NC(=O)[C@H](CC(=O)O)NC(=O)[C@H](Cc2ccc(C(=O)O)cc2)NC(=O)[C@H](Cc2ccncc2)NC(=O)CSC[C@@H](C(=O)N[C@@H](C)C(N)=O)NC(=O)[C@H]([C@@H](C)O)NC(=O)[C@H](C(C)C)NC(=O)[C@H](CC2CCCCC2)NC(=O)[C@H](Cc2cnc[nH]2)NC(=O)[C@@H](CC(C)C)NC(=O)[C@H](CCCN)NC1=O` [Compound 1622] it is 36 nM; for `CCC[C@@H]1NC(=O)[C@H](Cc2ccc(-c3ccccc3)cc2)NC(=O)[C@H](C(C)C)NC(=O)[C@H](Cc2c[nH]c3ccccc23)NC(=O)[C@H](CC(=O)O)NC(=O)[C@H](Cc2ccc(C(=O)O)cc2)NC(=O)[C@H](Cc2ccncc2)NC(=O)CSC[C@@H](C(=O)N[C@@H](C)C(N)=O)NC(=O)[C@H]([C@@H](C)O)NC(=O)[C@H](C(C)C)NC(=O)[C@H](CC2CCCCC2)NC(=O)[C@H](Cc2cnc[nH]2)NC(=O)[C@@H](CC(C)C)NC(=O)[C@H](CCCN)NC1=O` [Compound 1623] it is 27 nM. Regarding `CC[C@@H](C)[C@@H]1NC(=O)[C@H](Cc2ccc(-c3ccccc3)cc2)NC(=O)[C@H](C(C)C)NC(=O)[C@H](Cc2c[nH]c3ccccc23)NC(=O)[C@H](CC(=O)O)NC(=O)[C@H](Cc2ccc(C(=O)O)cc2)NC(=O)[C@H](Cc2ccncc2)NC(=O)CSC[C@@H](C(=O)N[C@@H](C)C(N)=O)NC(=O)[C@H]([C@@H](C)O)NC(=O)[C@H](C(C)C)NC(=O)[C@H](CC2CCCCC2)NC(=O)[C@H](CCN)NC(=O)[C@@H](CC2CCCCC2)NC(=O)[C@H](CCCN)NC1=O` [Compound 1624] ({CH2CO}-[4Pal][Phe(4-COOH)]DWV[Bip][aIle][Orn][dCha][Dab][Cha]VTCA-NH2; thioether N-14), the IC50 is 26.9 nM. Turning to `CC[C@@H](C)[C@@H]1NC(=O)[C@H](Cc2ccc(-c3ccccc3)cc2)NC(=O)[C@H](C(C)C)NC(=O)[C@H](Cc2c[nH]c3ccccc23)NC(=O)[C@H](CC(=O)O)NC(=O)[C@H](Cc2ccc(OCC(=O)O)cc2)NC(=O)[C@H](Cc2ccc(OCC(=O)O)cc2)NC(=O)CSC[C@@H](C(=O)N[C@@H](C)C(N)=O)NC(=O)[C@H]([C@@H](C)O)NC(=O)[C@H](C(C)C)NC(=O)[C@H](CC2CCCCC2)NC(=O)[C@H](CCN)NC(=O)[C@@H](CC2CCCCC2)NC(=O)[C@H](CCCN)NC1=O` [Compound 1625] ({CH2CO}-Y(Carboxymethyl)Y(Carboxymethyl)DWV[Bip][aIle][Orn][dCha][Dab][Cha]VTCA-NH2; thioether N-14), the IC50 was 35 nM.

Take `CC[C@@H](C)[C@@H]1NC(=O)[C@H](Cc2ccc(-c3ccccc3)cc2)NC(=O)[C@H](C(C)C)NC(=O)[C@H](Cc2c[nH]c3ccccc23)NC(=O)[C@H](CC(=O)O)NC(=O)[C@H](Cc2ccc(C(=O)O)cc2)NC(=O)[C@H](Cc2ccc(OCC(=O)O)cc2)NC(=O)CSC[C@@H](C(=O)N[C@@H](C)C(N)=O)NC(=O)[C@H]([C@@H](C)O)NC(=O)[C@H](C(C)C)NC(=O)[C@H](CC2CCCCC2)NC(=O)[C@H](CCN)NC(=O)[C@@H](CC2CCCCC2)NC(=O)[C@H](CCCN)NC1=O` [Compound 1626] ({CH2CO}-Y(Carboxymethyl)[Phe(4-COOH)]DWV[Bip][aIle][Orn][dCha][Dab][Cha]VTCA-NH2; thioether N-14): the IC50 is 51.9 nM. Take `CC[C@@H](C)[C@@H]1NC(=O)[C@H](Cc2ccc(-c3ccccc3)cc2)NC(=O)[C@H](C(C)C)NC(=O)[C@H](Cc2c[nH]c3ccccc23)NC(=O)[C@H](CC(=O)O)NC(=O)[C@H](Cc2ccc(OCC(=O)O)cc2)NC(=O)[C@H](CN)NC(=O)CSC[C@@H](C(=O)N[C@@H](C)C(N)=O)NC(=O)[C@H]([C@@H](C)O)NC(=O)[C@H](C(C)C)NC(=O)[C@H](CC2CCCCC2)NC(=O)[C@H](CCN)NC(=O)[C@@H](CC2CCCCC2)NC(=O)[C@H](CCCN)NC1=O` [Compound 1627] ({CH2CO}-[Dap]Y(Carboxymethyl)DWV[Bip][aIle][Orn][dCha][Dab][Cha]VTCA-NH2; thioether N-14): the IC50 turned out to be 19.3 nM.
